In patent US10670605B2, “Cysteine reactive probes and uses thereof” (The Scripps Research Institute, priority 2015, dated 2020):
Structures can show the parent of a compound that is named as a salt. Blank lines part the entries; values can stand above or below the compound they belong to.

Assays:
Format in all cases: cell-based
[1] = molecular target: SMAD2 C81 (Q15796) (Homo sapiens, UniProt Q15796); assay: Competitive isoTOP-ABPP in situ; conditions: fragment 2 at 200 μM, MDA-MB-231 cells
[2] = molecular target: cysteines in MDA-MB-231 and Ramos cells (Homo sapiens, UniProt Q5T1V6); assay: Competitive isoTOP-ABPP in situ (fragment-treated cells); conditions: 200 μM, insitu, 231
[3] = molecular target: cysteines in MDA-MB-231 and Ramos cells (Homo sapiens, UniProt Q9P0K7); assay: as above; conditions: 100 μM in situ 231
[4] = molecular target: cysteines in MDA-MB-231 and Ramos cells (Homo sapiens, UniProt P53992); assay: as above; conditions: 200 μM, insitu, 231
[5] = molecular target: cysteines in MDA-MB-231 and Ramos cells (Homo sapiens, UniProt Q9UHQ1); assay: as above; conditions: 200 μM, insitu, ramos
[6] = molecular target: T1, Cys residues in primary human T cells (Homo sapiens, UniProt O95081); assay: isoTOP-ABPP of compound-treated primary human T cells; conditions: AGFG2 C39 (O95081)
T1 sequence (O95081 1-481): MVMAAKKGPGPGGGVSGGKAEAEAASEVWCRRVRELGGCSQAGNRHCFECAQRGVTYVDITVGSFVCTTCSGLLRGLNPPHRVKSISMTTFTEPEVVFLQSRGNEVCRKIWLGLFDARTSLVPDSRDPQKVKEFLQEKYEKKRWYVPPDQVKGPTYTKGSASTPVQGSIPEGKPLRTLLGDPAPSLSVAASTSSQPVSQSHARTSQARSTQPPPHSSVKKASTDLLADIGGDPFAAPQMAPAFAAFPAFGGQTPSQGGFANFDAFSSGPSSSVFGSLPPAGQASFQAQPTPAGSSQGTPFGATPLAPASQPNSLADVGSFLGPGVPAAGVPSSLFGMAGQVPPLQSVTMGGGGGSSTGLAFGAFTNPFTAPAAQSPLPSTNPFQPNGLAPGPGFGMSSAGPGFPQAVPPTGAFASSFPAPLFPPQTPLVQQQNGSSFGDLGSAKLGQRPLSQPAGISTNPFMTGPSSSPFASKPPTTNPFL

[7] = molecular target: T2, Cys residues in primary human T cells (Homo sapiens, UniProt P11216); assay: as above; conditions: PYGB C326 (P11216)
T2 sequence (P11216 1-843): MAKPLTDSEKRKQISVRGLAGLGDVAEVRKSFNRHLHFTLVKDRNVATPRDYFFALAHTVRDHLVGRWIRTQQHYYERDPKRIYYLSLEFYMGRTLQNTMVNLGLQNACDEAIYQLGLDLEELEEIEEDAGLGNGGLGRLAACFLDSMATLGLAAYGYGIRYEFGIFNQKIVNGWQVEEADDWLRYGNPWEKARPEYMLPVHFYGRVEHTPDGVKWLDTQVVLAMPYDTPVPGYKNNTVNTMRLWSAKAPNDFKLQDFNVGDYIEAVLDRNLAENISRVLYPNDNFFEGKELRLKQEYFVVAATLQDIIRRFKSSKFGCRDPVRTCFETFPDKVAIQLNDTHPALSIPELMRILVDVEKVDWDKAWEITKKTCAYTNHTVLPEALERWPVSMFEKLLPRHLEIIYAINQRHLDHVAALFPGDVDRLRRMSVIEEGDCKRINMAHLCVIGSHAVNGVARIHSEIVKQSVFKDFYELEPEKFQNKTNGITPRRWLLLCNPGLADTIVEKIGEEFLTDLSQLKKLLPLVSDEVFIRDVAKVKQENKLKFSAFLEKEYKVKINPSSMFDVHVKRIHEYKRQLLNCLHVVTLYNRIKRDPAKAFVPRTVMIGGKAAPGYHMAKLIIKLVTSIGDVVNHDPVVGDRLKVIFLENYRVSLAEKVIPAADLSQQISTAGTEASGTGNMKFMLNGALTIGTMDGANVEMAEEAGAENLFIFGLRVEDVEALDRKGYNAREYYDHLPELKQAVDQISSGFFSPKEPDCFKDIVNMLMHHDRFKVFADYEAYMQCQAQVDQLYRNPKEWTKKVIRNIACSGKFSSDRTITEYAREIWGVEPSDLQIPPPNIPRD

[8] = molecular target: T3, Cys residues in primary human T cells (Homo sapiens, UniProt P54136); assay: as above; conditions: RARS C32 (P54136)
T3 sequence (P54136 1-660): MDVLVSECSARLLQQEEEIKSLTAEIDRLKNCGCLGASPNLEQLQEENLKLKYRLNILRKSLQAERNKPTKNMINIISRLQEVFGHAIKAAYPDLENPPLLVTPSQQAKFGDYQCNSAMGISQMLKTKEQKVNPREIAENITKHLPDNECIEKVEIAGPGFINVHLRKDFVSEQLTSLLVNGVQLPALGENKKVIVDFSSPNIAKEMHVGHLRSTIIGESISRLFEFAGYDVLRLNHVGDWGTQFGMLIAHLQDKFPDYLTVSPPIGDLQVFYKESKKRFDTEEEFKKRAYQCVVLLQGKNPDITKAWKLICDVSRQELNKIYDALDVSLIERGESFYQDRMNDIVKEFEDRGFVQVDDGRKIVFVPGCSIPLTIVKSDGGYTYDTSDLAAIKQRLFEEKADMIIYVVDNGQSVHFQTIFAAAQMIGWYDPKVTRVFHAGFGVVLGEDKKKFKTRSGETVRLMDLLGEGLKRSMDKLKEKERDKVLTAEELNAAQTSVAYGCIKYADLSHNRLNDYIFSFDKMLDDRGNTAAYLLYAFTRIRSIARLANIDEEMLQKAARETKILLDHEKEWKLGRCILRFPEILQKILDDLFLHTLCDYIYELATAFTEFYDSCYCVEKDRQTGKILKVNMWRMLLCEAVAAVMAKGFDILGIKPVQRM

[9] = molecular target: Cys residues in primary human T cells (Homo sapiens, UniProt Q93009); assay: as above; conditions: USP7 C315 (Q93009)
[10] = molecular target: Cys residues in primary human T cells (Homo sapiens, UniProt Q9NWZ3); assay: as above; conditions: IRAK4 C13 (Q9NWZ3)
Cys residues in primary human T cells (Homo sapiens, UniProt Q9NWZ3), sequence (Q9NWZ3 whole entry): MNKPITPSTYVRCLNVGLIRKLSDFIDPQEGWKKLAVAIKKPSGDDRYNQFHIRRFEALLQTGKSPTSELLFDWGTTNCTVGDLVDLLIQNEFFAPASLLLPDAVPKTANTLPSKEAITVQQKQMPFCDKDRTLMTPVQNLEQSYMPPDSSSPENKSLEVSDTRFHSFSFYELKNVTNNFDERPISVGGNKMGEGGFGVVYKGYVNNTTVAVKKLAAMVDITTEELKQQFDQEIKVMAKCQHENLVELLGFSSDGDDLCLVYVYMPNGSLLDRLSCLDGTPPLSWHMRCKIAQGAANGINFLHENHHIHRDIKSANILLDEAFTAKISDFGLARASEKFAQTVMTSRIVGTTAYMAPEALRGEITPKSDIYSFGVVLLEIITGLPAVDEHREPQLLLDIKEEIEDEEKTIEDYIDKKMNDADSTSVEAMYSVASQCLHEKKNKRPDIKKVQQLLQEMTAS

Cys residues in primary human T cells (Homo sapiens, UniProt Q93009), sequence (Q93009 whole entry): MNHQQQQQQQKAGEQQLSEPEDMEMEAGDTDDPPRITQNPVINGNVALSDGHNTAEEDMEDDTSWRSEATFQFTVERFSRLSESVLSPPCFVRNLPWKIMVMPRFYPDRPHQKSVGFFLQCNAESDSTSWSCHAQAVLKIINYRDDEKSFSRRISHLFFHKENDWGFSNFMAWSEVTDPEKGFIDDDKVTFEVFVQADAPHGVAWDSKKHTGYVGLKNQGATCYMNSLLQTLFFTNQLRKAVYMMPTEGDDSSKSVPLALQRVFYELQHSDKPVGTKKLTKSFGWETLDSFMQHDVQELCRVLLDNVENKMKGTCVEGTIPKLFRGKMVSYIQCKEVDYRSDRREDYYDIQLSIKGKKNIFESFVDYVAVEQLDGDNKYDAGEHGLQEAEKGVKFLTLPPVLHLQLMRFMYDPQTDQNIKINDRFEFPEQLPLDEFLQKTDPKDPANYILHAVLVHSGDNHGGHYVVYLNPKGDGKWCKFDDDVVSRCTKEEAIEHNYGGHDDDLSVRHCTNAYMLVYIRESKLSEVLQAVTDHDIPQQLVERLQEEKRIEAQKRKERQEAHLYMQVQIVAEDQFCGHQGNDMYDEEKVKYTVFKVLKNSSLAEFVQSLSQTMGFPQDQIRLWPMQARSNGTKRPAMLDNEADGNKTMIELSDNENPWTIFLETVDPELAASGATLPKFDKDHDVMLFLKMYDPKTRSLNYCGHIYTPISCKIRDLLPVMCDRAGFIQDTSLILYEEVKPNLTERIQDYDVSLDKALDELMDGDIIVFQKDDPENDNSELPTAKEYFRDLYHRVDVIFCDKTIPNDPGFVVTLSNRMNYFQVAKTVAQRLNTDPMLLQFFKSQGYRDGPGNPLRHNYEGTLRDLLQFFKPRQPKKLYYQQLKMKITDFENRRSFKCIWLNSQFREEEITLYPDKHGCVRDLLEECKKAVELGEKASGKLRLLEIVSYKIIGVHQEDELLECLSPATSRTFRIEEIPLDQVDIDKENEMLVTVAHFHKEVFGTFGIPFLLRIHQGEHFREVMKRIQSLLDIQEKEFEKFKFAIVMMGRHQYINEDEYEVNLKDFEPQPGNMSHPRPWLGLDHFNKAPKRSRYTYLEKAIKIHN
SMAD2 C81 (Q15796), sequence (Q15796 whole entry, the tested form may be a part): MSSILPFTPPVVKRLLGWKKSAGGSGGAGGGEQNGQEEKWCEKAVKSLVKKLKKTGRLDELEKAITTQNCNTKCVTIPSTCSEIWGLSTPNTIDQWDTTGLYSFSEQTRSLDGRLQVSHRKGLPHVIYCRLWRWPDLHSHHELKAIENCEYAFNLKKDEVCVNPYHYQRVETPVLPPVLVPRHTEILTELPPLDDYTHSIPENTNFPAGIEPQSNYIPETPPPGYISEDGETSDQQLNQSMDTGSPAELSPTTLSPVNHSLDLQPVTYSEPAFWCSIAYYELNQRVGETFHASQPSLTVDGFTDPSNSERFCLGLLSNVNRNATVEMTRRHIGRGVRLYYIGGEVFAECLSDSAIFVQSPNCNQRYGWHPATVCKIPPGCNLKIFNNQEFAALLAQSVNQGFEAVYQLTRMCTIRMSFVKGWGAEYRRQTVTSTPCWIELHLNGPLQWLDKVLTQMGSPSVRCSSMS
cysteines in MDA-MB-231 and Ramos cells (Homo sapiens, UniProt P53992), sequence (P53992 whole entry): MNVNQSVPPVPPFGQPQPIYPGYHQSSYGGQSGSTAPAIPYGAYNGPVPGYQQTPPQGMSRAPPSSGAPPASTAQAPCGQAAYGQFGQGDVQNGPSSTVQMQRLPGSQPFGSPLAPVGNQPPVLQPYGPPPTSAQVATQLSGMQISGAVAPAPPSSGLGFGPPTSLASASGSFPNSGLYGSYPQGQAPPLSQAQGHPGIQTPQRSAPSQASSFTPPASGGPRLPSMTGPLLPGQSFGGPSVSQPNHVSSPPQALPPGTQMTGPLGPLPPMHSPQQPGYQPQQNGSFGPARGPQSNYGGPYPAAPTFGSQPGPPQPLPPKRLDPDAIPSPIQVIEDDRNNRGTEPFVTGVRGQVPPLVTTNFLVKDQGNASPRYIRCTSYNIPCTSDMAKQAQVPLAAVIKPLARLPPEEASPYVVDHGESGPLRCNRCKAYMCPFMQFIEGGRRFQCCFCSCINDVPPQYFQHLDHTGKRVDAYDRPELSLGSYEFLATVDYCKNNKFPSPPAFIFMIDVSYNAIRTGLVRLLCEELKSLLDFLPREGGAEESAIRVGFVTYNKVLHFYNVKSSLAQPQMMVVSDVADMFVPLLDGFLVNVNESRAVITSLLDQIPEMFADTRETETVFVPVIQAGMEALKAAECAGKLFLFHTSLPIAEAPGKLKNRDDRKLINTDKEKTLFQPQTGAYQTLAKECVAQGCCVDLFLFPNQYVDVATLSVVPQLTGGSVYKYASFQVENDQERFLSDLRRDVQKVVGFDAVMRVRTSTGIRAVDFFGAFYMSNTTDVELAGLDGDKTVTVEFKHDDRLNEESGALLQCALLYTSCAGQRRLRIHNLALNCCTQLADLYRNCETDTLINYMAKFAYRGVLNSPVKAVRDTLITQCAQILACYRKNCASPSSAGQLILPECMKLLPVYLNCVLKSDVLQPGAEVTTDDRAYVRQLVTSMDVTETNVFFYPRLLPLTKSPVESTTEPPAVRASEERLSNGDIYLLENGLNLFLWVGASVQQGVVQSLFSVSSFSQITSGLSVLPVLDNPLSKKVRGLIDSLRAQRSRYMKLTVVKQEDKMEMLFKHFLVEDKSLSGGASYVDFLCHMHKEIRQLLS
cysteines in MDA-MB-231 and Ramos cells (Homo sapiens, UniProt Q5T1V6), sequence (Q5T1V6 whole entry, the tested form may be a part): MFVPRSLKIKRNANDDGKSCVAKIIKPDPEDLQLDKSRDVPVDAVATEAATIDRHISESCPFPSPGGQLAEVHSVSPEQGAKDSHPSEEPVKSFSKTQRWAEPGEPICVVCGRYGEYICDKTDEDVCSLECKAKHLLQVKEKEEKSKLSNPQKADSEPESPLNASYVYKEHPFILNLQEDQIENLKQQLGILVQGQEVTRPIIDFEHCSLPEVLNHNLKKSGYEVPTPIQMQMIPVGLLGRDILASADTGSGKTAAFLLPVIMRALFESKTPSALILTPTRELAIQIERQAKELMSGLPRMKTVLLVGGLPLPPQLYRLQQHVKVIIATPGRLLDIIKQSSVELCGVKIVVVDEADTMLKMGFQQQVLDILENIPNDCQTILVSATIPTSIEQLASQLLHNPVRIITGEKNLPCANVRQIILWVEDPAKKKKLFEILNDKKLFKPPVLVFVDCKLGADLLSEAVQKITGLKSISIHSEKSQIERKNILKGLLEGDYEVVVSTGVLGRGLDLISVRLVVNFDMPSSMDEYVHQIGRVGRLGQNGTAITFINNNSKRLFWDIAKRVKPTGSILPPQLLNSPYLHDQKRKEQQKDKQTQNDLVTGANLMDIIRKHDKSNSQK
cysteines in MDA-MB-231 and Ramos cells (Homo sapiens, UniProt Q9P0K7), sequence (Q9P0K7 whole entry): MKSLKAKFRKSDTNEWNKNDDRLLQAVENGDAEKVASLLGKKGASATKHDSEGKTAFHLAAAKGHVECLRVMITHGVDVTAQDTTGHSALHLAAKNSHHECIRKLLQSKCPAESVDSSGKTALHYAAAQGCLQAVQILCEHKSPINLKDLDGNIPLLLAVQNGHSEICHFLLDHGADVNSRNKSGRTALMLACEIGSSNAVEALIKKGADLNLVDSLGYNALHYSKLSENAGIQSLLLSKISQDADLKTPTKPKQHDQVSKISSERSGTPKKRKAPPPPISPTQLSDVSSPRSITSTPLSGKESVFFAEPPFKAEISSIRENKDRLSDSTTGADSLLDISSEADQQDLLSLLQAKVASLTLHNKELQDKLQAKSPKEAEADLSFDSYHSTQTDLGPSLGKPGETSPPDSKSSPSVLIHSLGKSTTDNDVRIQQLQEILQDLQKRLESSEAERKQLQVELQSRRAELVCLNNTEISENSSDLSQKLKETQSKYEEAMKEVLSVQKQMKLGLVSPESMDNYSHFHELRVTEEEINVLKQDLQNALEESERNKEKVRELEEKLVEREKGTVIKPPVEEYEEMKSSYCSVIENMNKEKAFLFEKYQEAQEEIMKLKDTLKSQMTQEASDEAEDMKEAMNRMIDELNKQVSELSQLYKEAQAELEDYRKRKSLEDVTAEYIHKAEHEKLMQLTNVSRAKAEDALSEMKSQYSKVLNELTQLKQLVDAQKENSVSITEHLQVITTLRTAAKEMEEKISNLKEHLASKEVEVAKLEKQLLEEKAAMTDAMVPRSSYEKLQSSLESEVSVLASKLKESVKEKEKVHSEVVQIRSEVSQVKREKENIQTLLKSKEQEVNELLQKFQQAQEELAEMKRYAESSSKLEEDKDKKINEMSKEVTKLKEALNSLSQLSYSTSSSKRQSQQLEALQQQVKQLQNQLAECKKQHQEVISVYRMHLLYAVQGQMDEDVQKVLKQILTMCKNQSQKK

isoTOP-ABPP reactivity profile (ratio) 2_200 μM_in-situ_231 [1]: 20.0
SMILES: COc1ccc2c(c1)CCCN2C(=O)CCl [compound 2]

isoTOP-ABPP ratio, cysteine Q5T1V6_C414 [2]: 11.3
SMILES: O=C(CCl)N1CCN(S(=O)(=O)c2ccccc2F)CC1 [compound 10]

isoTOP-ABPP ratio, cysteine Q9P0K7_C973 [3]: 0.8
SMILES: Cn1cc(S(=O)(=O)N2CCOCC2)cc1C(=O)NC(=O)CCl [compound 11]

isoTOP-ABPP ratio, cysteine P53992_C78 [4]: 0.7 | isoTOP-ABPP ratio, cysteine Q9UHQ1_C99 [5]: 20.0
SMILES: O=C(CCl)NCCc1c[nH]c2ccccc12 [compound 13]

SMILES: COC(=O)/C=C/C(=O)OC [DMF, dimethyl fumarate]
R value (DMSO/DMF) ([6]; DMF 10 μM 4h): 1.42 | R value (DMSO/DMF) ([6]; DMF 50 μM 2h): 3.85 | R value (DMSO/DMF) ([6]; DMF 50 μM 4h): 6.39 | R value (DMSO/DMF) ([7]; DMF 10 μM 4h): 1.65 | R value (DMSO/DMF) ([7]; DMF 25 μM 4h): 3.53 | R value (DMSO/DMF) ([7]; DMF 50 μM 1h): 2.47 | R value (DMSO/DMF) ([7]; DMF 50 μM 2h): 3.73 | R value (DMSO/DMF) ([7]; DMF 50 μM 4h): 6.76 | R value (DMSO/DMF) ([8]; DMF 10 μM 4h): 0.62 | R value (DMSO/DMF) ([8]; DMF 25 μM 4h): 4.03 | R value (DMSO/DMF) ([8]; DMF 50 μM 1h): 2.58 | R value (DMSO/DMF) ([8]; DMF 50 μM 2h): 3.58 | R value (DMSO/DMF) ([8]; DMF 50 μM 4h): 5.02 | R value (DMSO/DMF) ([9]; DMF 10 μM 4h): 1.9 | R value (DMSO/DMF) ([9]; DMF 50 μM 1h): 5.33 | R value (DMSO/DMF) ([9]; DMF 50 μM 2h): 14.06 | R value (DMSO/DMF) ([10]; DMF 50 μM 1h): 8.3 | R value (DMSO/DMF) ([10]; DMF 50 μM 4h): 20
